According to ChEMBL document CHEMBL3091427, “The discovery of the benzazepine class of histamine H3 receptor antagonists” (Bioorg Med Chem Lett, 2013):

Legend:
Histamine H3 receptor [1] = molecular target: Histamine H3 receptor (Homo sapiens, UniProt Q9Y5N1); test: Antagonist activity at human histamine H3 receptor expressed in CHOK1 cells assessed as inhibition of GTPgammaS binding by scintillation proximity assay; format: functional, cell-based, CHO-K1
Liver microsome [2] = test: Intrinsic clearance in human liver microsomes; format: ADME
Cytochrome P450 2D6 = Cytochrome P450 2D6 (Homo sapiens, UniProt P10635); test: Inhibition of human CYP2D6; format: ADME
Cytochrome P450 2D6, sequence (P10635 whole entry): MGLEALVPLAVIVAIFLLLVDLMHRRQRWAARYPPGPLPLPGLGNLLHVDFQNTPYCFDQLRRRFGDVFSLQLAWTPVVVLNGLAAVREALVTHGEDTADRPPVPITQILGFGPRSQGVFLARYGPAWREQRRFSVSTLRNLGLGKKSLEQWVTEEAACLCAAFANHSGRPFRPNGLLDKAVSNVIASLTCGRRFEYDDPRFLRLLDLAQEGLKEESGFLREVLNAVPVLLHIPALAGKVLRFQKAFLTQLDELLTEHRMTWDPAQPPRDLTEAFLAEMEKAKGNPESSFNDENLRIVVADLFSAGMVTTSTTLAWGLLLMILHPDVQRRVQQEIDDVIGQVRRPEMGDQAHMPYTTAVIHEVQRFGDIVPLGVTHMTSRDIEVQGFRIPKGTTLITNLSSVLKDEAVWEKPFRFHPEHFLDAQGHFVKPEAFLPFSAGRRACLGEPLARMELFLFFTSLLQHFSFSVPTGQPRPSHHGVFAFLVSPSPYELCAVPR

Liver microsome [3] = test: Intrinsic clearance in rat liver microsomes; format: ADME
Rattus norvegicus [4] = test: Reversal of RAMH-induced dipsogenia in Lister Hooded rat at 3 mg/kg, po; format: functional
Histamine H1 receptor = Histamine H1 receptor (Homo sapiens, UniProt P35367); test: Antagonist activity at human recombinant histamine H1 receptor expressed in CHO cells assessed as inhibition of histamine-induced effect by FLIPR assay; format: cell-based
Histamine H1 receptor, sequence (P35367 whole entry): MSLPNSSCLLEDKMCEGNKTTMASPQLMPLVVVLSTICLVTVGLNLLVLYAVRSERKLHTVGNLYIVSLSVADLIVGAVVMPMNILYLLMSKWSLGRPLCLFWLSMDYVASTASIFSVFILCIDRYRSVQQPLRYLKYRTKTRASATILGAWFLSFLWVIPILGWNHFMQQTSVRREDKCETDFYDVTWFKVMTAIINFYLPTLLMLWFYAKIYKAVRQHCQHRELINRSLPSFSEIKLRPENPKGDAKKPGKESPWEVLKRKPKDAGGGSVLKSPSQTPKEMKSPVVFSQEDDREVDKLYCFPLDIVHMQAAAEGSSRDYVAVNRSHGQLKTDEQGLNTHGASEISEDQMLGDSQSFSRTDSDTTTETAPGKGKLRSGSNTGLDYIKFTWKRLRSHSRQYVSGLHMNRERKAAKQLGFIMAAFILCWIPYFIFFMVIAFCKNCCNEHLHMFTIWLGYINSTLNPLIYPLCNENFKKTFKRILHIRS

Albumin = Albumin (Homo sapiens, UniProt P02768); test: Binding affinity to human serum albumin; format: ADME; settings: isolated protein
Albumin, sequence (P02768 whole entry): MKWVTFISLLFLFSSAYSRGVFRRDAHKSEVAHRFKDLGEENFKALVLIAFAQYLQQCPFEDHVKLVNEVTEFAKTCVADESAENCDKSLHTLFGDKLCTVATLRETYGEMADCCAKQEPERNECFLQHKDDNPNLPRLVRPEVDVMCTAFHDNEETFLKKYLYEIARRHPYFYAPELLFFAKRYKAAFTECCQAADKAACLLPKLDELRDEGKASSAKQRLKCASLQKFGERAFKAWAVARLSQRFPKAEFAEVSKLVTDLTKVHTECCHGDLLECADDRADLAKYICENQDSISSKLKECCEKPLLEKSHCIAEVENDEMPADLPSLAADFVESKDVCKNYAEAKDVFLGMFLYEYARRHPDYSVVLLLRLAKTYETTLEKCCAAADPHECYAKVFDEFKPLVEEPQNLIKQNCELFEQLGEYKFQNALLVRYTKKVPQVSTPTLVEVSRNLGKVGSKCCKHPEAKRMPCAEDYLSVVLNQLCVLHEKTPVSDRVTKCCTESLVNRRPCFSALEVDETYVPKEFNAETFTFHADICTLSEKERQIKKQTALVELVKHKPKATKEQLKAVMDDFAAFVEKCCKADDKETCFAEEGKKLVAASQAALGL

[5] = Terminal half life in iv dosed rat after 0.5 hrs; format: ADME, organism-based; settings: in vivo, read-out: beta t1/2 (converted)
[6] = Volume of distribution at steady state in iv dosed rat after 1 hr; format: ADME, organism-based; settings: in vivo, read-out: Vdss
[7] = Total blood clearance in iv dosed rat after 1 hr; format: ADME, organism-based; settings: whole blood
[8] = Ratio of drug level in brain to blood in Lister Hooded rat at 3 mg/kg, po after 2 hrs; format: ADME, organism-based; design: dose 3 mg/kg, route oral
[9] = Drug level in Lister Hooded rat blood at 3 mg/kg, po after 2 hrs; format: ADME, organism-based; design: dose 3 mg/kg, route oral; settings: whole blood, read-out: Ct
[10] = Drug level in Lister Hooded rat brain at 3 mg/kg, po after 2 hrs; format: ADME, organism-based; design: dose 3 mg/kg, route oral; settings: read-out: Ct
Rattus norvegicus [11] = test: Ex vivo binding affinity to histamine H3 receptor in po dosed Lister Hooded rat; format: functional
[12] = Lipophilicity, log D of the compound; format: physicochemical; settings: octanol/water
[13] = Dissociation constant, pKa of the compound; format: physicochemical
Histamine H3 receptor [14] = molecular target: Histamine H3 receptor (Rattus norvegicus, UniProt Q9QYN8); test: Displacement of [3H]R-alpha-methylhistamine from histamine H3 receptor in rat cerebral cortical membranes after 45 mins by liquid scintillation spectrometry; format: cell membranes
Histamine H3 receptor (Rattus norvegicus, UniProt Q9QYN8), sequence (Q9QYN8 whole entry): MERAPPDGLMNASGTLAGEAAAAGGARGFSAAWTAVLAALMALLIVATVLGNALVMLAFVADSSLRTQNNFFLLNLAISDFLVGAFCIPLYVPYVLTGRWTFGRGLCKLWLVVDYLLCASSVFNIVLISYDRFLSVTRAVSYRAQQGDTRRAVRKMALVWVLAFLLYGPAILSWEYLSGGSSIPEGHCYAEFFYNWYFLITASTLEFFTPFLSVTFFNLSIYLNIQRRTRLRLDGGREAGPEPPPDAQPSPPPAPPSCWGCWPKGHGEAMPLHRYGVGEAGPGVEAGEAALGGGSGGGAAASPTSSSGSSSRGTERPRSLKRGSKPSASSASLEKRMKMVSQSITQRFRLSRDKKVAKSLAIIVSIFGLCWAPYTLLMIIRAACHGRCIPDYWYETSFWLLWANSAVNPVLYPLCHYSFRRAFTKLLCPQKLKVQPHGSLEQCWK

hERG (KCNH2) = hERG (KCNH2) (Homo sapiens, UniProt Q12809); test: Inhibition of human ERG at 10 uM by patch clamp assay
hERG (KCNH2), sequence (Q12809 whole entry): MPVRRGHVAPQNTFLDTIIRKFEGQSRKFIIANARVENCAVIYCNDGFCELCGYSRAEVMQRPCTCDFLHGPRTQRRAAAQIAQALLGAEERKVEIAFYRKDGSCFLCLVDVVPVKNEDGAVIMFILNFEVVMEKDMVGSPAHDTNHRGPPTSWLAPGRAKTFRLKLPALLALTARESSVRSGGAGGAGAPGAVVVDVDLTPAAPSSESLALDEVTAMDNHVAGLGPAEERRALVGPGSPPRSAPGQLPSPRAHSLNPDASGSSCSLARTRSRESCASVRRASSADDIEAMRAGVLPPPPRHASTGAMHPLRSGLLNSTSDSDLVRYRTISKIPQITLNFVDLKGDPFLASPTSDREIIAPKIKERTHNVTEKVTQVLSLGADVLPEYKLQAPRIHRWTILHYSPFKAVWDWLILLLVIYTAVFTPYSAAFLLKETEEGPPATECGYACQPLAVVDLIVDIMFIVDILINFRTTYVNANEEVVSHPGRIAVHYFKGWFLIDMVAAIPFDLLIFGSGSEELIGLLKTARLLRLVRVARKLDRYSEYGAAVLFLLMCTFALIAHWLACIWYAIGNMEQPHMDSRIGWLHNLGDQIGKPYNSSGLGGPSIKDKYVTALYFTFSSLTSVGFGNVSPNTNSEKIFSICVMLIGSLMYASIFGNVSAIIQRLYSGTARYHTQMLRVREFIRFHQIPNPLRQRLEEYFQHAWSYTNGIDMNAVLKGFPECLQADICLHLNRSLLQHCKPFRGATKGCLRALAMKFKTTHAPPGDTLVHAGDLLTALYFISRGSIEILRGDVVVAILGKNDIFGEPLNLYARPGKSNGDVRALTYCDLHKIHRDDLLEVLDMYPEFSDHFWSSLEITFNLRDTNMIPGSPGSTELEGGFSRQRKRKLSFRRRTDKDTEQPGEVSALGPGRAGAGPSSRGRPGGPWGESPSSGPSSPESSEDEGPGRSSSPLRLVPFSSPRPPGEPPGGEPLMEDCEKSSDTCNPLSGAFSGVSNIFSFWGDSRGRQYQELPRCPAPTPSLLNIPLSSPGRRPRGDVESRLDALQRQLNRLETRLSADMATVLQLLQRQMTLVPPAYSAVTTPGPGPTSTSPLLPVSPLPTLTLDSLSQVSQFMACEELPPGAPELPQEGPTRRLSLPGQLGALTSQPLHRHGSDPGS

Rattus norvegicus [15] = test: Reversal of RAMH-induced dipsogenia in Lister Hooded rat at 10 mg/kg, ip; format: functional; settings: route intraperitoneal

Histamine H3 receptor (Homo sapiens, UniProt Q9Y5N1), sequence (Q9Y5N1 whole entry): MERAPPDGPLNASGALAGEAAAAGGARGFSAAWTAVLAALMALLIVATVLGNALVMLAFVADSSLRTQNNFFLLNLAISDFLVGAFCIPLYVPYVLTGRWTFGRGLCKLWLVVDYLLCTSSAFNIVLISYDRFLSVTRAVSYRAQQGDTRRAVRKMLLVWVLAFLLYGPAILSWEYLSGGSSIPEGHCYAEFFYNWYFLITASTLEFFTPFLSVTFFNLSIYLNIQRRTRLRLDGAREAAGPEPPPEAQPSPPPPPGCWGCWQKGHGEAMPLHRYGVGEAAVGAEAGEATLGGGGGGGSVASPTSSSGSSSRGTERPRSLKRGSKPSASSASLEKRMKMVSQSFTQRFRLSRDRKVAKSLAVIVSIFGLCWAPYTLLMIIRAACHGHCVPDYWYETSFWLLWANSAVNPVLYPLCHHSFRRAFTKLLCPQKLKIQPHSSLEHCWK

Row | Compound | Ki (Histamine H3 receptor [1]) | CLH (Liver microsome [2]) | CLH (Liver microsome [3]) | other results
1 | CC(C)N1CCc2ccc(OCc3ccccc3)cc2CC1 | 20 nM |  |  | 
2 | CS(=O)(=O)N1CCC(Oc2ccc3c(c2)CCN(C2CCC2)CC3)CC1 | 0.794 nM | 0.5 mL/min/g | 2.9 mL/min/g | IC50 (Cytochrome P450 2D6): 13000 nM; Activity (Rattus norvegicus [4]): 6%
3 | CN(C)CCCOc1ccc2c(c1)CCNCC2 | 100 nM |  |  | 
4 | c1cc2c(cc1OCCCN1CCCCC1)CCN(CC1CCCO1)CC2 (centres undefined) | 0.501 nM |  |  | Ki (Histamine H1 receptor): 2000 nM
5 | c1cc2c(cc1OCC1CCNCC1)CCN(C1CCC1)CC2 | 0.501 nM | 0.9 mL/min/g | 0.7 mL/min/g | IC50 (Cytochrome P450 2D6): 19000 nM; Activity (Rattus norvegicus [4]): 44%
6 | Cn1c(=O)ccc2cc(COc3ccc4c(c3)CCN(C3CCC3)CC4)ccc21 | 0.398 nM | 3.4 mL/min/g | 2.5 mL/min/g | IC50 (Cytochrome P450 2D6): 4200 nM
7 | CN1CCc2ccc(OCc3ccccc3)cc2CC1 | 316 nM |  |  | 
8 | c1cc2c(cc1OC1CCNCC1)CCN(C1CCC1)CC2 | 0.316 nM | 0.5 mL/min/g | 1.2 mL/min/g | 
9 | CC(=O)N1CCc2ccc(OCCCN3CCCCC3)cc2CC1 | 15.8 nM |  |  | 
10 | c1cc2c(cc1OCCCN1CCCCC1)CCN(CC1CC1)CC2 | 0.501 nM |  |  | Ki (Histamine H1 receptor): 2000 nM
11 | c1cc2c(cc1OCCCN1CCCCC1)CCNCC2 | 3.98 nM |  |  | Ki (Histamine H1 receptor): 1260 nM
12 | O=C(c1ccc(OCCCc2cnc[nH]2)cc1)C1CC1 [CIPROXIFAN] |  |  |  | Activity (Rattus norvegicus [4]): 100%; Activity (Albumin): 80%; Ki (Histamine H1 receptor): > 2510 nM
13 | Cc1cc(C(=O)N2CCC(Oc3ccc4c(c3)CCN(C3CCC3)CC4)CC2)no1 | 1.58 nM | 1.2 mL/min/g | 3.5 mL/min/g | IC50 (Cytochrome P450 2D6): 43000 nM; Activity (Rattus norvegicus [4]): 11%
14 | c1ccc(N2CCc3ccc(OCCCN4CCCCC4)cc3CC2)cc1 | 10 nM |  |  | Ki (Histamine H1 receptor): 1000 nM
15 | c1cc2c(cc1OCCN1CCCCC1)CCNCC2 | 158 nM |  |  | 
16 | CC(C)CN1CCc2ccc(OCc3ccccc3)cc2CC1 | 25.1 nM |  |  | 
17 | c1ccc(COc2ccc3c(c2)CCNCC3)cc1 | > 10000 nM |  |  | 

Row | Compound | Ki (Histamine H3 receptor [1]) | CLH (Liver microsome [2]) | CLH (Liver microsome [3]) | other results
18 | c1ccc(COc2ccc3c(c2)CCN(C2CCCCC2)CC3)cc1 | 10 nM |  |  | 
19 | O=C(c1ccc(Cl)cc1)N1CCC(Oc2ccc3c(c2)CCN(C2CCC2)CC3)CC1 | 0.501 nM | 0.8 mL/min/g | 2.9 mL/min/g | Activity (Rattus norvegicus [4]): 89%
20 | c1ccc(COc2ccc3c(c2)CCN(C2CCCC2)CC3)cc1 | 0.794 nM | 19 mL/min/g | > 50 mL/min/g | IC50 (Cytochrome P450 2D6): 600 nM
21 | c1ccc(COc2ccc3c(c2)CCN(CC2CC2)CC3)cc1 | 10 nM | 11 mL/min/g | > 50 mL/min/g | IC50 (Cytochrome P450 2D6): 1500 nM; Ki (Histamine H1 receptor): 1000 nM
22 | c1ccc(COc2ccc3c(c2)CCN(Cc2ccccc2)CC3)cc1 | > 1000 nM |  |  | 
23 | c1cc2c(cc1OCCCN1CCCCC1)CCNC2 | 2.51 nM |  |  | 
24 | O=C(N1CCOCC1)N1CCC(Oc2ccc3c(c2)CCN(C2CCC2)CC3)CC1 | 1 nM | 0.9 mL/min/g | 1.1 mL/min/g | half-life [5]: 1.2 h; Vd [6]: 4.6 L/kg; clearance [7]: 63 mL/min/kg; Kp at 2 h [8]: 1.1; concentration at 2 h [9]: 470 nM; concentration at 2 h [10]: 530 nM; ED50 (Rattus norvegicus [11]): 2.2 mg/kg; logD [12]: 2.2; pKa [13]: 9.2; Ki (Histamine H3 receptor [14]): 12.6 nM; Activity (Rattus norvegicus [4]): 100%; Activity (Albumin): 49%; inhibition at 10 µM (hERG (KCNH2)): < 30%
25 | c1cc2c(cc1OCCCN1CCCCC1)CCN2 | 15.8 nM |  |  | 
26 | c1cc2c(cc1OCCN1CCCCC1)CCN(CC1CC1)CC2 | 0.794 nM |  |  | Ki (Histamine H1 receptor): > 2000 nM
27 | O=C(N[C@H]1CCN(Cc2ccc(OCCCN3CCCCC3)cc2)C1)c1ccc2c(c1)OCO2 | 0.0251 nM |  |  | Activity (Rattus norvegicus [15]): 78%; Activity (Albumin): 96%; Ki (Histamine H1 receptor): > 2510 nM
28 | OC1CCN(CCCOc2ccc3c(c2)CCNCC3)CC1 | > 10000 nM |  |  | 
29 | FC1(F)CCN(CCCOc2ccc3c(c2)CCNCC3)CC1 | > 398 nM |  |  | 
30 | c1ccc(COc2ccc3c(c2)CCN(C2CCC2)CC3)cc1 | 0.251 nM | 12 mL/min/g | > 50 mL/min/g | IC50 (Cytochrome P450 2D6): 600 nM
31 | CC(C)N1CCC(Oc2ccc3c(c2)CCNCC3)CC1 | 2.51 nM |  |  | Ki (Histamine H1 receptor): > 2510 nM
32 | c1ccc(COc2ccc3c(c2)CCN(C2CC2)CC3)cc1 | 5.01 nM |  |  | 
33 | c1cc2c(cc1OCCCN1CCOCC1)CCNCC2 | 100 nM |  |  | 
